Key:
tyrosinase = target: T1, tyrosinase (Mus musculus, UniProt P11344); test: Tyrosinase activity inhibition assay (B16F1 cell lysate, L-tyrosine substrate, MBTH, absorbance at 520 nm); assay type: biochemical; conditions: lysate of B16F1 cells (murine melanoma line) as tyrosinase source, 37° C., reading at 520 nm after 6 hours
T1 construct: the supernatant obtained constitutes the cell lysate used as tyrosinase source in the enzymatic assay; endogenous in cells; host or cells: B16F1 murine melanoma cells, cultured with alpha-MSH; detergent lysate supernatant
T1 sequence (P11344 19-533): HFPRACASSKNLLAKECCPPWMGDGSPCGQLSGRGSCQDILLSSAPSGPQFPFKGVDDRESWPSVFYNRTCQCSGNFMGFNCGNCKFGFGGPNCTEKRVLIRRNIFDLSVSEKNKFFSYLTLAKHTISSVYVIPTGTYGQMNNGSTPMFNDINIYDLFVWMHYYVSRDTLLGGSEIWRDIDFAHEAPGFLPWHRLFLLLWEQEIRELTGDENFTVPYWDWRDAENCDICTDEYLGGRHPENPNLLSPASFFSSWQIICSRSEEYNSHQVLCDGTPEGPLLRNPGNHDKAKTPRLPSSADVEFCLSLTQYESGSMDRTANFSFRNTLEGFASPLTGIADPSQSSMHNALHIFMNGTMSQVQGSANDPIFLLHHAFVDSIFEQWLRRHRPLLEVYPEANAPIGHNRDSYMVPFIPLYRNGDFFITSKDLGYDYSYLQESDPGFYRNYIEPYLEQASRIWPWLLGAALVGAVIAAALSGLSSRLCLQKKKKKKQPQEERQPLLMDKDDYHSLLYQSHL
Description: The activity of the inhibitors is measured starting from a lysate of B16F1 cells (murine melanoma line). In the presence of the L-tyrosine substrate, the tyrosinase present in these cells catalyses the hydroxylation of L-tyrosine to give L-DOPA and then the oxidation of the L-DOPA to give dopaquinone. In the presence of MBTH (3-methyl-2-benzothiazolinone hydrazone), the dopaquinone is trapped so as to form a pink complex which absorbs at 520 nm.
The B16F1 cells are cultured in DMEM medium+10% foetal calf serum+10^−9 M α-MSH for 4 days at 37° C. under 7% CO2. They are treated with trypsin, washed with PBS, counted and pelleted. The pellet is taken up at 10^7 cells/ml in lysis buffer (10 mM sodium phosphate, pH 6.8−1% Igepal) and the suspension is treated with ultrasound for 10 seconds. After centrifugation for 30 minutes at 4000 rpm, the supernatant obtained constitutes the cell lysate used as tyrosinase source in the enzymatic assay.
The assays are carried out in duplicate in 384-well plates in a total volume of 50 μl. Each well contains: • 40 μl of solution containing 1.25 mM L-tyrosine, 6.25 μM L-DOPA (cofactor) and 3.75 mM MBTH in buffer B (62.25 mM sodium phosphate, pH 6.8-2.5% dimethylformamide), • 5 μl of inhibitor diluted in DMSO, • 5 μl of cell lysate diluted to ½ in 50 mM Tris HCl buffer, pH 7.5.
The plate is incubated at 37° C. and a spectrophotometric reading is carried out at 520 nm after incubating for 6 hours. In order to avoid any possible absorption of the products, the system employs corrected absorbance (absorbance at time 6 h—absorbance at time zero).
The inhibitors are assayed in terms of dose-response so as to calculate an IC50 (dose which inhibits 50% of the enzymatic activity).
Several internal controls are added to each experiment: • control for 100% activity: the 5 μl of inhibitor are replaced with 5 μl of DMSO, • control for 50% activity: the 5 μl of inhibitor are replaced with 5 μl of phenylthiourea at 300 μM in DMSO, • control for 0% activity: the L-tyrosine substrate is replaced with buffer B.

SMILES	melting point [°C]	IC50 (tyrosinase) [µM]
On1cc(-c2ccccc2)[nH]c1=S [Compound 5, 1-hydroxy-4-phenyl-1,3-dihydroimidazole-2-thione]	196.3	–
On1c(-c2ccccc2)c[nH]c1=S [Compound 4, 1-hydroxy-5-phenyl-1,3-dihydroimidazole-2-thione]	–	0.89
COn1ccn(C)c1=S [Compound 3, 1-methoxy-3-methyl-1,3-dihydroimidazole-2-thione]	56.9 to 57.5	72
S=c1[nH]ccn1OCc1cccnc1 [Compound 2, 1-(pyridin-3-ylmethoxy)-1,3-dihydroimidazole-2-thione]	128 to 129	–
COn1cc[nH]c1=S [Compound 1, 1-methoxy-1,3-dihydroimidazole-2-thione]	111 to 111.8	–

Now from value to compound:

melting point [°C]	IC50 (tyrosinase) [µM]	SMILES
150	0.82	COc1ccc(-c2c[nH]c(=S)n2O)cc1 [Compound 6, 1-hydroxy-5-(4-methoxyphenyl)-1,3-dihydroimidazole-2-thione]
160	–	COc1ccc(-c2cn(O)c(=S)[nH]2)cc1 [Compound 7, 1-hydroxy-4-(4-methoxyphenyl)-1,3-dihydroimidazole-2-thione]
183.6 to 184.8	3.7	On1c(-c2cccs2)c[nH]c1=S [Compound 8, 1-hydroxy-5-(thiophen-2-yl)-1,3-dihydroimidazole-2-thione]

Source: US20100010049A1, “Novel Tyrosinase inhibitors and pharmaceutical/cosmetic applications thereof” (GALDERMA RESEARCH & DEVELOPMENT, priority 2006, published 2010)
